Data as given in PubChem BioAssay (NCI).
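96-well plates; 48 h exposure; 5 concentrations. Endpoints by linear interpolation between flanking doses. Not reached: highest tested concentration assigned. The concentration for full growth arrest is given as TGI.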 Where a SMILES comes first, the peptide text is derived from it. [ ]: non-standard residue; d: D form. The star is where a group is joined. hSer = N[CH](CCO)C(=O)O; Boc = CC(C)(C)OC(=O)*

Key:
Assay in all cases: NCI anticancer screen, dose series, 48 h
RXF 393 renal = system: RXF 393 renal
SN12C renal = system: SN12C renal
LOX IMVI melanoma = system: LOX IMVI melanoma
MDA-MB-231 breast = system: MDA-MB-231 breast
MDA-N = system: MDA-N
MDA-MB-435 = system: MDA-MB-435
OVCAR-3 ovarian = system: OVCAR-3 ovarian
UACC-62 melanoma = system: UACC-62 melanoma
MALME-3M melanoma = system: MALME-3M melanoma

SMILES | TGI (RXF 393 renal) [µM] | TGI (SN12C renal) [µM] | TGI (LOX IMVI melanoma) [µM] | TGI (MDA-MB-231 breast) [µM] | TGI (MDA-N) [µM] | TGI (MDA-MB-435) [µM] | TGI (OVCAR-3 ovarian) [µM] | TGI (UACC-62 melanoma) [µM] | TGI (MALME-3M melanoma) [µM]
O=c1c2cc([N+](=O)[O-])ccc2n2n1Cc1ccccc1CC2 | > 100 | > 100 | > 100 | > 100 | > 100 | > 100 | > 100 | > 100 | > 100
O=C(Cc1ccc(Cl)c(Cl)c1)NCCCN1CCN(CCCN2CCCCC2)CC1 | 31.1 | 39 | 30.2 | 28.8 | 6.31 | 4.11 | 80.7 | 13.8 | 34.7
O=S(=O)(O)c1ccc(NN(c2c(O)ccc3ccccc23)S(=O)(=O)O)cc1 | – | > 100 | > 100 | > 100 | > 100 | > 100 | > 100 | > 100 | > 100
COc1ccc(-n2sc3ncc(-c4ccccc4)cc3c2=O)cc1 | > 100 | 80.2 | > 100 | – | – | > 100 | 47.2 | > 100 | –
COc1c2cc(C(C)(C)C)cc1CSCc1cc(C(C)(C)C)cc(c1OC)CCCCC2 | – | > 50 | – | > 50 | > 50 | > 50 | > 50 | > 50 | > 50
CCOC(=O)C1NCCc2c1[nH]c1ccccc21 (configuration not stated) | > 10 | > 10 | – | > 10 | > 10 | > 10 | > 10 | > 10 | > 10
CN1CC(c2ccccc2)=Cc2c1ccc(N)c2N=N | – | > 100 | > 100 | > 100 | > 100 | > 100 | > 100 | > 100 | > 100
COCCC(NC(=O)C(CC(C)C)NC(=O)OC(C)(C)C)C(N)=O (stereo not drawn) (Boc-Leu-[hSer](Me)-NH2; configuration not given here) | > 100 | > 100 | > 100 | > 100 | > 100 | > 100 | > 100 | > 100 | > 100
COc1ccc(NC(=S)NN=C(C)c2cccc(C(C)=NNC(=S)Nc3ccc(OC)cc3)n2)cc1 | > 100 | > 100 | > 100 | – | – | > 100 | > 100 | > 100 | > 100
c1cc(-c2cscc2-c2ccsc2)cs1 | > 100 | > 100 | > 100 | > 100 | > 100 | > 100 | 89.8 | > 100 | –
COc1cc2c(cc1OC)C(=O)N(c1ccc(O)cc1)C2 | > 100 | > 100 | > 100 | > 100 | > 100 | > 100 | > 100 | > 100 | > 100
Nc1c(Br)cc(-c2cc(Br)c(N)c(Br)c2)cc1Br | > 100 | > 100 | > 100 | > 100 | > 100 | > 100 | > 100 | > 100 | > 100
